Experimental data: patent publication US20150141411A1, “SUBSTITUTED 3,4-DIHYDRO-2H-PYRIDO[1,2-A]PYRAZINE-1,6-DIONE DERIVATIVES USEFUL FOR THE TREATMENT OF (INTER ALIA) ALZHEIMER'S DISEASE” (Janssen Pharmaceuticals, Inc., priority 2012, published 2015)

Columns and labels:
[1] = target: T1, γ-secretase (Homo sapiens, UniProt P49768); experiment: Screening for γ-secretase-modulating activity: Aβtotal in supernatant of SKNBE2 cells carrying hAPP 695 wild type (Alphalisa); format: cell-based; settings: SKNBE2 human neuroblastoma cells carrying hAPP 695 wild type, overnight incubation, Aβtotal in cell supernatant
T1 construct: endogenous in cells; host or cells: SKNBE2 human neuroblastoma cells (carrying hAPP 695 wild type as substrate)
Outline: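 SKNBE2 neuroblastoma cells expressing wild-type hAPP 695 plated at 10^4 cells/well in Ultraculture with test compound, incubated overnight at 37° C. Aβ42 (C-terminal/N-terminal antibody pair) and Aβtotal (N-terminal/4G8 pair) in supernatant quantified by AlphaLISA. IC50 from 4-parameter fit of percent of compound-free control.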

[2] = tested on: Aβ38; experiment: In vivo efficacy: brain soluble Aβ38 in non-transgenic rodents (MSD electrochemiluminescence multiplex); design: species or system mouse; settings: Mus musculus, po, 4 h, dose 30 mg/kg oral dosing, brain soluble fraction, animals sacrificed after 4 h, untreated animals (Ctrl) set at 100, read-out: Aβ38 (% vs Ctrl)_Mean
From the text: To determine whether acute administration of an Aβ38 increasing agents would increase Aβ38 levels in vivo, non-transgenic rodents, e.g. mice or rats were used. Animals treated with the Aβ38 increasing agents were examined and compared to those untreated or treated with vehicle and brain levels of soluble Aβ42, Aβ40, Aβ38, and Aβ37 were quantitated by MSD electrochemiluminescence detection technology. Treatment periods varied from hours (h) to days and were adjusted based on the results of the Aβ38 increase once a time course of onset of effect could be established.
A typical protocol for measuring Aβ38 increase in vivo is shown but it is only one of many variations that could be used to optimize the levels of detectable Aβ. For example, Aβ38 increasing agents were formulated in 20% of Captisol® (a sulfobutyl ether of β-cyclodextrin) in water or 20% hydroxypropyl βcyclodextrin. The Aβ38 increasing agents were administered as a single oral dose or by any acceptable route of administration to overnight fasted animals. After 4 h, the animals were sacrificed and Aβ38 levels were analysed.
Blood was collected by decapitation and exsanguinations in EDTA-treated collection tubes. Blood was centrifuged at 1900 g for 10 minutes (min) at 4° C. and the plasma recovered and flash frozen for later analysis. The brain was removed from the cranium and hindbrain. The cerebellum was removed and the left and right hemisphere were separated. The left hemisphere was stored at −18° C. for quantitative analysis of test compound levels. The right hemisphere was rinsed with phosphate-buffered saline (PBS) buffer and immediately frozen on dry ice and stored at −80° C. until homogenization for biochemical assays.
Mouse brains from non-transgenic animals were resuspended in 8 volumes of 0.4% DEA (diethylamine)/50 mM NaCl containing protease inhibitors (Roche-11873580001 or 04693159001) per gram of tissue, e.g. for 0.158 g brain, add 1.264 ml of 0.4% DEA. All samples were homogenized in the FastPrep-24 system (MP Biomedicals) using lysing matrix D (MPBio #6913-100) at 6 m/s for 20 seconds. Homogenates were centrifuged at 20800×g for 5 min and supernatants collected. Supernatants were centrifuged at 221.300×g for 50 min. The resulting high speed supernatants were then transferred to fresh eppendorf tubes. Nine parts of supernatant were neutralized with 1 part 0.5 M Tris-HCl pH 6.8 and used to quantify Aβ.
To quantify the amount of Aβ42, Aβ40, Aβ38, and Aβ37 in the soluble fraction of the brain homogenates, simultaneous specific detection of Aβ42, Aβ40, Aβ38, and Aβ37 was performed using MSD's electro-chemiluminescence multiplex detection technology. In this assay purified monoclonal antibodies specific for Abeta37 (JRD/Aβ37/3), Abeta38 (J&JPRD/Aβ38/5), Abeta40 (JRF/cAβ40/28), and Abeta42 (JRF/cAβ42/26) were coated on MSD 4-plex plates. Briefly, the standards (a dilution of synthetic Aβ42, Aβ40, Aβ38, and Aβ37) were prepared in 1.5 ml Eppendorf tube in Ultraculture, with final concentrations ranging from 10000 to 0.3 pg/m. The samples and standards were co-incubated with Sulfo-tag labelled JRF/rAβ/2 antibody to the N-terminus of Aβ as detector antibody. 50 μl of conjugate/sample or conjugate/standards mixtures were then added to the antibody-coated plate. The plate was allowed to incubate overnight at 4° C. in order to allow formation of the antibody-amyloid complex. Following this incubation and subsequent wash steps the assay was finished by adding read buffer according to the manufacturer's instructions (MesoScale Discovery, Gaitherburg, Md.).
The SULFO-TAG emits light upon electrochemical stimulation initiated at the electrode. MSD Sector instrument SI6000 was used for signal read-out.
In this model a Aβ38 increase compared to untreated animals would be advantageous, in particular a Aβ38 increase with at least 10%, more in particular a Aβ38 increase with at least 20%. […]

| IC50 [1] | Compound | response vs control in vivo at 30 mg/kg [2] |
| --- | --- | --- |
| > 10 µM | Cc1cn(-c2ccc3n(c2=O)C[C@@H](C)N(Cc2cc(OCC(F)(F)F)cc(C(F)(F)F)c2)C3=O)cn1 [compound 166] | 127% |
| 6.46 µM | Cc1cn(-c2ccc3n(c2=O)C[C@@H](C)N(Cc2c[nH]c4cc(F)c(Cl)cc24)C3=O)cn1 [compound 195] | 123% |
